According to patent US20160176919A1, “CELL SPECIFIC LABELING OF NEWLY SYNTHESIZED PROTEINS” (OREGON HEALTH & SCIENCE UNIVERSITY, priority 2014, published 2016):

How the values were obtained:
Hela cells = assay: Identifying the nascent proteome in Hela cells using OP-puro (click chemistry with biotin azide, NeutrAvidin affinity purification, Western blot/silver stain, MS/MS); format: cell-based, human
Protocol: FIG. 3 is a set of two images of gels that show selective enrichment of newly synthesized proteins in Hela cells treated with OP-puro relative to those treated with puromycin. Hela cells were treated with either 50 μM OP-puro or puro (as indicated) for one hour. Cells were then harvested in PBS+1% SDS (sodium dodecyl sulfate) and lysed. Lysates were diluted in 0.1% SDS and incubated with biotin azide using a click reaction for one hour. Biotinylated proteins were affinity purified using NeutrAvidin agarose beads. Eluted proteins were resolved using a 4-12% gradient SDS-PAGE gel and detected by either Western blot with streptavidin-HRP (left gel) or by silver stain (right gel). The lanes reflect input (I), supernatant (S), or pull-down (P) as indicated.
OP-puro can identify newly synthesized proteins in a defined timeframe in mammalian cells grown in culture. Newly synthesized proteins were identified in Hela cells using OP-puro, followed by click chemistry, affinity purification, and MS/MS analysis. OP-puro was synthesized according to Liu et al, 2012 supra.
To prepare samples for MS/MS analysis, the captured biotinylated proteins from the OP-puro and puro (used as a background control) treated cells were alkylated and digested on the agarose beads using trypsin. The peptides were analyzed using a capillary HPLC system coupled online with an LTQ orbitrap mass spectrometer. […] These peptides identified 530 different human proteins, which represents ˜5% of the total Hela proteome (Nagaraj et al 2011 supra).

[1] = tested on: HEK293T cells transfected with PGA-IRES-GFP or control plasmid; assay: Deblocking of PhAc-OP-puro by PGA in HEK 293T cells transfected with PGA-IRES-GFP or control plasmid (biotin azide click, Streptavidin-HRP dot blot/Western blot); format: cell-based, human
Protocol: FIG. 4A is a dot blot and a bar graph showing HEK293T cells transfected with either a PGA IRES GFP or a control plasmid (as indicated) using calcium phosphate transfection. Twenty-four hours after transfection, cells were treated with 5 or 50 μM of DMSO (negative control), OP-puro, or PhAc-OP-puro as indicated for 30 minutes. Cells were harvested in PBS+1% SDS. Lysates were diluted 10× and incubated with biotin azide under click reaction conditions for one hour. Lysates were spotted onto nitrocellulose and biotinylated proteins detected with Streptavidin-HRP (top panel). Dot intensity was quantified using Image) and graphed (bottom panel).
FIG. 4B is a set of two images of gels showing proteins from three of the samples described in FIG. 4A resolved by 4-12% gradient SDS-PAGE and detected by Western blot with Streptavidin-HRP (left panel) or Ponceau S staining (right panel) Bands marked with an asterisk are endogenous cellular biotinylated proteins.
In E. coli, PGA is expressed as a precursor protein containing a signal sequence that targets it to the bacterial periplasm, where it is processed and activated (Kasche et al, Biochem Biophys Acta 1433, 76 (1999); incorporated by reference herein). Previous studies, however, have shown that by removing the signal sequence, PGA can be expressed in the cytoplasm of the methylotrophic yeast, Pichia pastoris (Maresova H et al, BMC Biotechnol 10, 7 (2010); incorporated by reference herein). Importantly, this cytoplasmic variant of PGA was as active as wild type (WT) PGA expressed in bacteria (Maresova H et al, 2010 supra). However, to date, no one had shown whether or not PGA could be expressed in mammalian cells or any cells derived from a multicellular organism. A construct (PGA-IRES-GFP) was the designed, the construct comprising a variant of PGA lacking the signal sequence described above, and an IRES-GFP for co-cistronic expression of GFP to identify transfected cells.
The incorporation of OP-puro into newly synthesized proteins was detected using click chemistry with biotin azide. […] (FIG. 4A).

[2] = tested on: HEK 293T cells transfected with PGA-IRES-GFP; assay: Cell-specific labeling of newly synthesized proteins in single HEK 293T cells (click chemistry with Alexa Fluor-568 azide, fluorescence microscopy); format: cell-based, human; conditions: 5 μM, 30 min
Protocol: FIG. 5A is a set of 12 images of HEK 293T cells transfected with PGA-IRES-GFP or controls as indicated using calcium phosphate transfection. In two of the conditions, PGA-IRES-GFP transfected cells were mixed with nontransfected cells such that the total population of transfected cells was 5%. At a timepoint 24 hours post transfection, cells were treated with either a DMSO control or 5 μM PhAc-OP-puro for 30 minutes as indicated. Cells were then fixed with methanol and nascent protein synthesis detected by click chemistry with Alexa Fluor-568 azide. After click chemistry, cells were labeled with an antibody specific for GFP. Total cells were detected by DAPI.
In cells treated with PhAc-OP-puro (5 μM, 30 min), labeling of newly synthesized proteins (OP-puro-tagged peptides) is detected in PGA-expressing cells (identified by GFP) (FIG. 5A). The amount of labeling appeared to correlate with the expression levels of PGA as determined by comparing the fluorescence intensity of the OP-puro tagged peptides to the fluorescence intensity of GFP.

[3] = Stability of PhAc-OP-puro in mouse plasma by LCMS; format: in vitro ADME; conditions: in vitro, for up to 40 min
Protocol: FIG. 6 is a plot of the results of incubating PhAc-OP-puro in mouse plasma for the indicated period of time. Stability of PhAc-OP-puro was monitored by liquid chromatography mass spectrometry.
As shown above, PhAc-OP-puro is stable in cell culture and is not converted to OP-puro in wild type cells. To use PhAc-OP-puro in an animal system such as mice, the in vitro stability of PhAc-OP-puro in plasma should be determined. Plasma typically contains high esterase activity that could result in cleavage of the carbamate linkage in PhAc-OP-puro. Cleavage of PhAc-OP-puro at the carbamate linkage would generate OP-puro, and therefore would not allow use of the disclosed method in intact mice. While there are several examples of drugs containing carbamates (Chaturvedi D, Tetrahedron 68, 15 (2012); incorporated by reference herein), it is unpredictable whether or not a particular carbamate is resistant to esterases in plasma.
The potential esterase-dependent metabolism of PhAc-OP-puro in mouse plasma was assessed by liquid chromatography mass spectrometry (LCMS). PhAc-OP-puro was determined to be stable in mouse plasma for up to 40 min (FIG. 6).

[4] = OP-puro treated Hela cells, puro as background control

C#CCOc1ccc(C[C@H](N)C(=O)N[C@H]2[C@@H](O)[C@H](n3cnc4c(N(C)C)ncnc43)O[C@@H]2CO)cc1 [OP-puro, O-propargyl puromycin]
biotinylated proteins in NeutrAvidin eluates (Western blot with streptavidin-HRP) (Hela cells; Hela cells, 50 μM, one hour): presence of biotinylated proteins
fraction of the total Hela proteome represented by identified proteins (Hela cells; OP-puro treated Hela cells): ~5%
different human proteins identified (Hela cells; [4]): 530
peptides with unique amino acid sequences identified by MS/MS (Hela cells; [4]): 1,600

C#CCOc1ccc(C[C@H](NC(=O)OCc2ccc(NC(=O)Cc3ccccc3)cc2)C(=O)NC2C(CO)OC(n3cnc4c(N(C)C)ncnc43)C2O)cc1 (stereo partly shown) [PhAc-OP-puro]
incorporation into newly synthesized proteins (biotin signal) ([1]; HEK 293T cells transfected with PGA-IRES-GFP, 5 μM, 30 min): prominent biotin signal
time for complete conversion to OP-puro ([1]; PGA-IRES-GFP transfected HEK 293T cells, 5 μM): ≤ 30 min
induction of the unfolded protein response ([1]; PGA-IRES-GFP transfected HEK 293T cells, 5 μM, 30 min): no observed induction
signal intensity relative to OP-puro control ([1]; PGA-IRES-GFP transfected HEK 293T cells, 5 μM, 30 min, versus control transfected cells with OP-puro 5 μM): the same as that of control transfected cells treated with OP-puro
activity (labeling of proteins) in the absence of PGA ([1]; control transfected HEK 293T cells, up to 50 μM): completely inert
labeling of newly synthesized proteins (OP-puro-tagged peptides) in PGA-expressing cells ([2]; PGA-expressing cells identified by GFP): detected
labeling of newly synthesized proteins in cells not expressing PGA ([2]; cells not expressing PGA): No labeling was detected
stability in mouse plasma [3]: stable

COc1ccc(C[C@H](N)C(=O)N[C@H]2[C@@H](O)[C@H](n3cnc4c(N(C)C)ncnc43)O[C@@H]2CO)cc1 [puro, puromycin]
silver stain of NeutrAvidin eluates (Hela cells; Hela cells, 50 μM, one hour): no detectable staining
